Test results: ChEMBL document CHEMBL1149931, “4-(2-pyridyl)-2,2-dimethylnaphthalen-1-ones as new potassium channel activators with increased airways selectivity” (Bioorg Med Chem Lett, 1995)
pIC50: −log10 of the molar value.

Tests used:
Rattus norvegicus [1] = organism: Rattus norvegicus; assay: Concentration required to inhibit NA-induced contractions in rat portal vein by 50%; type: functional
Cavia porcellus [2] = assay: Compound was evaluated in vivo for its ability to inhibit methacholine induced bronchospasm in male guinea pig.; type: functional
Cavia porcellus [3] = organism: Cavia porcellus; assay: Concentration required to inhibit spontaneous tone of guinea pig isolated tracheal spirals; type: functional; details: Trachea
Rattus norvegicus [4] = organism: Rattus norvegicus; assay: Compound was evaluated for its hypotensive activity (decrease in blood pressure) in normotensive rats.; type: functional
Cavia porcellus [5] = organism: Cavia porcellus; assay: Compound was evaluated for its hypotensive activity (decrease in blood pressure) in male guinea pigs.; type: functional
Rattus norvegicus [6] = organism: Rattus norvegicus; assay: Percent inhibition of NA-induced contractions in rat portal vein at 10 uM was evaluated; type: functional; details: for inhibition at 10 µM: Rattus norvegicus
Rattus norvegicus [7] = assay: Changes in systolic blood pressure was measured at intervals of 1 hr for 4 hr after oral administration of 0.1 mg/kg in rats; type: functional, Artery

Compound `CC1(C)C=C(c2cccc[n+]2[O-])c2cc(C(F)(F)C(F)(F)F)ccc2C1=O` has a pIC50 (Rattus norvegicus [1]) of 6.23, an ED25 (Cavia porcellus [2]) of 0.036 mg/kg and a pIC50 (Cavia porcellus [3]) of 6.96. The ED25 (Rattus norvegicus [4]) was 0.776 mg/kg and the ED25 (Cavia porcellus [5]) was 0.0876 mg/kg.

Compound `CC1(C)CC(O)(c2cccc[n+]2[O-])c2cc(C#N)ccc2C1=O` (stereo not drawn) has a pIC50 (Cavia porcellus [3]) of 5.14 and an inhibition at 10 µM (Rattus norvegicus [6]) of 30%.

With `CC1(C)CC(c2cccc[n+]2[O-])c2cc(C#N)ccc2C1=O` (stereo not drawn) the pIC50 (Rattus norvegicus [1]) was 6.80, the “Max fall in blood pressure” value (Rattus norvegicus [7]) was 99.5 mmHg and the pIC50 (Cavia porcellus [3]) was 5.60.

In the case of `CC1(C)C=C(c2cccc[n+]2[O-])c2cc(C#N)ccc2C1=O`, the pIC50 (Rattus norvegicus [1]) was 6.05, the ED25 (Cavia porcellus [2]) was 0.0303 mg/kg and the pIC50 (Cavia porcellus [3]) was 6.70. The ED25 (Rattus norvegicus [4]) was 0.079 mg/kg and the ED25 (Cavia porcellus [5]) was 0.0647 mg/kg.

Compound `CC1(C)Oc2ccc(C#N)cc2[C@H](N2CCCC2=O)[C@H]1O` (single isomer, unassigned) [(-)-CROMAKALIM] has a pIC50 (Rattus norvegicus [1]) of 7.00, an ED25 (Cavia porcellus [2]) of 0.0162 mg/kg and a pIC50 (Cavia porcellus [3]) of 6.55. The ED25 (Rattus norvegicus [4]) was 0.0215 mg/kg and the ED25 (Cavia porcellus [5]) was 0.0075 mg/kg.

`CC1(C)C=C(c2cccc[n+]2[O-])c2cc(Br)ccc2C1=O` was tested, and the pIC50 (Rattus norvegicus [1]) was 6.09, the ED50 (Cavia porcellus [2]) was 0.148 mg/kg and the “Max fall in blood pressure” value (Rattus norvegicus [7]) was 53 mmHg. It also gave a pIC50 (Cavia porcellus [3]) of 6.64, an ED25 (Rattus norvegicus [4]) of 0.0877 mg/kg and an ED25 (Cavia porcellus [5]) of 0.0891 mg/kg.

For `CC1(C)C=C(c2ccccn2)c2cc(Br)ccc2C1=O`, the pIC50 (Rattus norvegicus [1]) was 4.32 and the pIC50 (Cavia porcellus [3]) was < 5.00.

In the case of `CC1(C)C=C(c2cccc[n+]2[O-])c2cc(Cl)c(Cl)cc2C1=O`, the pIC50 (Rattus norvegicus [1]) was 6.33, the ED50 (Cavia porcellus [2]) was 0.0912 mg/kg and the “Max fall in blood pressure” value (Rattus norvegicus [7]) was 74 mmHg. It also gave a pIC50 (Cavia porcellus [3]) of 6.68, an ED25 (Rattus norvegicus [4]) of 0.079 mg/kg and an ED25 (Cavia porcellus [5]) of 0.0933 mg/kg.

For `COC1(c2cccc[n+]2[O-])CC(C)(C)C(=O)c2ccc(Br)cc21` (stereo not drawn), the pIC50 (Cavia porcellus [3]) was < 5.00 and the inhibition at 10 µM (Rattus norvegicus [6]) was 20%.

With `CC1(C)C(=O)c2ccc(Br)cc2C2(c3cccc[n+]3[O-])OC12` (stereo not drawn) the pIC50 (Cavia porcellus [3]) was 5.77 and the Inhibition (Rattus norvegicus [6]) was 12%.
